Data as given in patent US4921846A, “Novel 17-hetero substituted steroids” (Roussel Uclaf, priority 1987, dated 1990).

Key:
[1] = molecular target: T1, Progestogene receptor of the uterus of a rabbit (Oryctolagus cuniculus, UniProt P06186); assay: Progestogene receptor of the uterus of a rabbit, relative bond affinity; format: binding; conditions: for relative bond affinity (RBA), Progestogene: RBA=100(CH)/(CX)
T1 construct: The uteri were removed, weighted and homogenized at 0° C; from tissue; host or cells: uterus of estradiol-treated impuberal female rabbits, 105,000 g supernatant (cytosol)
T1 sequence (P06186 1-930): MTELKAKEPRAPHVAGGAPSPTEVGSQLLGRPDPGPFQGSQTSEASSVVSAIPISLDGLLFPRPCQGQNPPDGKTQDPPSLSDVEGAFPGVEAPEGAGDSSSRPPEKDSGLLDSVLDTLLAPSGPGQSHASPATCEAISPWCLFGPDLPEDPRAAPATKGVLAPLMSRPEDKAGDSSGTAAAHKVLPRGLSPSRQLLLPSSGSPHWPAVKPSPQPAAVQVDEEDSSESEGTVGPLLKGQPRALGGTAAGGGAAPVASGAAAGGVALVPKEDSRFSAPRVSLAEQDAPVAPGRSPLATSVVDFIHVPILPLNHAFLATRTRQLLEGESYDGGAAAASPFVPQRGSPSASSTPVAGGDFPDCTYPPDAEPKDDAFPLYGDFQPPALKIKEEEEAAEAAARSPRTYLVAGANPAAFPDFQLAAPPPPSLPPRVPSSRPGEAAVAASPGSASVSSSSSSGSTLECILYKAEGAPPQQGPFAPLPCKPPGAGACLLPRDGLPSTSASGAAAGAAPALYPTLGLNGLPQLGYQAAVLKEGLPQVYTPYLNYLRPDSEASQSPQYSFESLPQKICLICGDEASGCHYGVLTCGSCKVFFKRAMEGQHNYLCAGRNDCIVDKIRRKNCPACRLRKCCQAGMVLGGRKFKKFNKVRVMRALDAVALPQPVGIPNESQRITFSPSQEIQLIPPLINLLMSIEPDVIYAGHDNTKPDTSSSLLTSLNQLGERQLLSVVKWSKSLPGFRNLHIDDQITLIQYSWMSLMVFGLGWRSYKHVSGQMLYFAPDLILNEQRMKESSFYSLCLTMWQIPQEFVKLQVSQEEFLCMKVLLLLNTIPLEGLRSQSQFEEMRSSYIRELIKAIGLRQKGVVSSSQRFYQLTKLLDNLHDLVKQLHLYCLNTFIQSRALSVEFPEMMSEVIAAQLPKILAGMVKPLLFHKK
Protocol: Impuberal female rabbits of about 1 kg received a cutaneous application of […] of estradiol and, 5 days after this treatment, the animals were killed. The uteri were removed, weighted and homogenized at 0° C. in a Potter teflon-dish in a buffered solution TS (Tris 10 mM, saccharose 0.25M, HCl pH 7.4) (1 g of tissue per 50 ml of TS). The homogenate was then ultra-centrifuged (105,000 g×90 minutes) at 0° C. and aliquots of the supernatant thus obtained were incubated at 0° C. for a time t, with a constant concentration (T) of tritiated product R (17,21-dimethyl-19-nor-Δ^4,9 -pregnadien-3,20-dione) in the presence of increasing concentrations (0-2500×10^-9 M) either of cold R, or of cold progesterone or of the cold product under test. The concentration of bonded tritiated R (B) […] by the technique of adsorption on dextran carbon.
(§1) The calculation of the relative bond affinity (RBA) was the same for all the receptors. The following 2 curves were drawn: the percentage of bonded tritiated hormone B/T as a function of the logarithm of the concentration of the cold reference hormone and B/T as a function of the logarithm of the concentration of the cold product under test. The straight line of the equation I50 =(B max/T+B min/T)/2 was determined. B/T max = percentage of bonded tritiated hormone for an incubation of this hormone tritiated at a concentration (T). B/T min = percentage of bonded tritiated hormone for an incubation of this tritiated hormone at a concentration (T) in the presence of a large excess of cold hormone (2500×10^-9 M). The intersections of the straight line I50 and the curves enables the concentrations of cold reference hormone (CH) and of cold product under test (CX) which inhibit by 50% the bond of the tritiated hormone on the receptor to be evaluated. The relative bond affinity (RBA) of the product tested was determined by the equation: […]

[2] = test system: Thymocytes of suprarenalectomized rats; assay: Antiglucocorticoid activity: tritiated uridin incorporation in thymocytes with dexamethasone; format: cell-based; conditions: Rattus norvegicus, Thymocyte, 5.10^-8 M dexamethasone, 37° C., read-out: % inhibition of the effect of dexamethasone; for inhibition at 1 µM: product at 10^-6 M; for inhibition at 0.1 µM: product at 10^-7 M; for inhibition at 0.01 µM: product at 10^-8 M
Protocol: The technique used was derived from the method described by Dausse et al in Molecular Pharmacology, Vol. 13, p.
Thymocytes of suprarenalectomized rats were incubated at 37° C. for 3 hours in a nutritive medium containing 5.10^-8 M of dexamethasone in the presence or absence of a product test at various concentrations. Tritiated uridin was added and incubation was continued for one hour. The incubates were cooled, treated with a 5% solution of trichloroacetic acid, filtered on Whatman GF/A paper and washed three time with a 5% solution of trichloroacetic acid. The radioactivity retained by the filter was determined. Glucocorticoids and, in particular dexamethasone, cause a decrease in the incorporation of tritiated uridin.

[3] = molecular target: T2, Glucocorticoid receptor of the thymus of a rat (Rattus norvegicus, UniProt P06536); assay: Glucocorticoid receptor of the thymus of a rat, relative bond affinity; format: binding; conditions: for relative bond affinity (RBA), Glucocorticoid: RBA=100(CH)/(CX), reference dexamethasone
T2 construct: The thymuses were removed and homogenized at 0° C; from tissue; host or cells: thymus of adrenalectomized male Sprague-Dawley rats, 105,000 g supernatant (cytosol)
T2 sequence (P06536 1-795): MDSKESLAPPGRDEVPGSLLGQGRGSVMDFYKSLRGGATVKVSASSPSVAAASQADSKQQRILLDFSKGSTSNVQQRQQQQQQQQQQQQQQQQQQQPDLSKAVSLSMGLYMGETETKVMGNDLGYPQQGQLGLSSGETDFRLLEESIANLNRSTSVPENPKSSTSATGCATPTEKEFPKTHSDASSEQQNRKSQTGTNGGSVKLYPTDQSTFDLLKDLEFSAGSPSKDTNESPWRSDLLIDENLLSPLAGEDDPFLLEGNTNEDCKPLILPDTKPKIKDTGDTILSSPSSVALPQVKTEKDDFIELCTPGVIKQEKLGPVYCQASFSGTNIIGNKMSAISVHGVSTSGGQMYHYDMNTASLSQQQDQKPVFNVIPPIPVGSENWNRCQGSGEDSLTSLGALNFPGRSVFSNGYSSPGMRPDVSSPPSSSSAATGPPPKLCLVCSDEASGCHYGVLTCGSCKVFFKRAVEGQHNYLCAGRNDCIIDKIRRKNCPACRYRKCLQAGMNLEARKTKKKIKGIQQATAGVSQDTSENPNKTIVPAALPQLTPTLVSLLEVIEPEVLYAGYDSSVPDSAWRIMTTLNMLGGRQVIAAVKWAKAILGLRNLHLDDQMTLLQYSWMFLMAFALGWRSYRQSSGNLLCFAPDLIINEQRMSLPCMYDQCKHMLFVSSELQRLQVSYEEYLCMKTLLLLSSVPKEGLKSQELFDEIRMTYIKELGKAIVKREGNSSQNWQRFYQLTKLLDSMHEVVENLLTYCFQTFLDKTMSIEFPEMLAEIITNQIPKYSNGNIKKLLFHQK
Protocol: Sprague-Dawley EPOS male rats weighting 160 to 200 g were suprarenalectomized and, 4 to 8 days after this removal, the animals were killed. The thymuses were removed and homogenized at 0° C. in a buffer Tris 10 mM, saccharose 0.25M, dithiothreitol 2 mM, HCl, pH 7.4, with Potter polytetrafluoroethylene-dish (1 g of tissue per 10 ml of TS). The homogenate was then ultra-centrifuged (105,000 g×90 minutes) at 0° C. Aliquots of the supernatant thus obtained were incubated at 0° C. for a time t, with a constant concentration (T) of tritiated dexamethasone in the presence of increasing concentrations (0-2500×10^-9 M) either of cold dexamethasone, or of cold product under test. The concentration of bonded tritiated […] (B) was then measured in each incubate by the technique of adsorption on dextran carbon.
as §1

female rat = assay: Abortive activity in a female rat; format: in vivo; conditions: 3 mg/kg on day D9 of gestation, suspension in carboxymethyl cellulose containing 0.5% Tween; examined 72 hours after treatment
Protocol: Day D1 of gestation was determined by the presence of spermatozoids in the vaginal smear and, on day D9 of the gestation, the product was administered in suspension in carboxymethyl cellulose containing 0.5% Tween. The animals were killed 72 hours after the treatment and the uterus was examined to determine the state of gestation.

Structure (SMILES) | relative bond affinity (RBA), Progestogene ([1]; Incubation Time at 0° C.: 2 H) | relative bond affinity (RBA), Progestogene ([1]; Incubation Time at 0° C.: 4 H) | affinity for progestogen receptors (in words) ([1]; conclusion) | inhibition at 1 µM [2] [%] | inhibition at 0.1 µM [2] [%] | inhibition at 0.01 µM [2] [%] | relative bond affinity (RBA), Glucocorticoid ([3]; Incubation Time at 0° C.: 2 H) | relative bond affinity (RBA), Glucocorticoid ([3]; Incubation Time at 0° C.: 4 H) | affinity for glucocorticoid receptors (in words) ([3]; conclusion) | abortion (state of gestation) (female rat)
CN(C)c1ccc([C@H]2C[C@@]3(C)[C@@H](CC[C@@]34CCO4)[C@@H]3CCC4=CC(=O)CCC4=C32)cc1 [Example 1, (17R) 11β-[4-(dimethylamino)-phenyl]-spiro-(Δ^4,9-estradien-17,2'-oxetan)-3-one] | 93 | 415 | marked affinity | 122 | 55 | 16 | 126 | 43 | marked affinity | complete abortion in all the animals of the group
CSc1ccc([C@H]2C[C@@]3(C)[C@@H](CC[C@@]34CCO4)[C@@H]3CCC4=CC(=O)CCC4=C32)cc1 [Example 2, (17R) 11β-[4-(methylthio)-phenyl]-spiro-(Δ^4,9-estradient-17,2'-oxetan)-3-one] | 23 | 67 | – | 76 | 27 | 10 | 56 | 22 | – | –
CN(C)c1ccc([C@H]2C[C@@]3(C)[C@@H](CC[C@@]34CCCCO4)[C@@H]3CCC4=CC(=O)CCC4=C32)cc1 [Example 3, (17S) 11β-[4-(dimethylamino)-phenyl]-3',4',5',6'-tetrahydro spiro (Δ^4,8-estradien-17,2'-(2H)pyran)-3-one] | 24 | 157 | – | 93 | 22 | 7 | 23 | 24 | – | –
